Laboratory results reported in publication PMC9505123, “Zeta-Carotene Isomerase (Z-ISO) Is Required for Light-Independent Carotenoid Biosynthesis in the Cyanobacterium Synechocystis sp. PCC 6803” (Microorganisms, 2022).

Target: T1, Synechocystis ZDS (CrtQ) (Synechocystis sp. PCC 6803, UniProt P74306)
T1 construct: pCDFDuet-1 MCS1, co-expressed with slr1599 (pAH587) or maize Z-ISO (pAH590) in E. coli BL21(DE3) with pAC-ZETAipi
T1 sequence (P74306 1-489): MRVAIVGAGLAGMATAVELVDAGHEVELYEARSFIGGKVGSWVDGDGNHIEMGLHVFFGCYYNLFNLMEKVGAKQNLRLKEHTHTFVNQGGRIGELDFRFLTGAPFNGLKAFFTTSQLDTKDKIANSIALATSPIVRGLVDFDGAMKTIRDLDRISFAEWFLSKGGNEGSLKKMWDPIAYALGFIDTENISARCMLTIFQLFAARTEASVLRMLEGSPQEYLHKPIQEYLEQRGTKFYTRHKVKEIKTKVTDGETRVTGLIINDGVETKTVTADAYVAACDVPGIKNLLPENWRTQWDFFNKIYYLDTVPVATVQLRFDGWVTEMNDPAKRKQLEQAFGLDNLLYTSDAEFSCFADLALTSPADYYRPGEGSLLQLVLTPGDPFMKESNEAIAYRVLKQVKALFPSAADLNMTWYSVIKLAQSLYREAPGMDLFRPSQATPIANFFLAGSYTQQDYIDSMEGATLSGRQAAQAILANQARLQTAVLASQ
Test: RP-HPLC of carotenoids from dark-grown E. coli co-expressing pAC-ZETAipi and Z-ISO
Format: cell-based
Conditions: 37 °C, 24 h, substrate formed in situ by Slr1599 or maize Z-ISO, converted to cis-lycopene isomers

In the case of `CC(C)=CCC/C(C)=C/CC\C(C)=C/C=C/C(C)=C/C=C/C=C(C)/C=C/C=C(/C)CC/C=C(\C)CCC=C(C)C` [9,9′-di-cis-ζ-carotene], the “RP-HPLC of carotenoids from dark-grown E. coli co-expressing pAC-ZETAipi and Z-I” value is reported as “ζ-carotene species were almost completely absent and a variety of new carotenoid species”.
